Measurements from patent publication US20100216779A1 (GLAXOSMITHKLINE LLC, priority 2007, published 2010).

How the values were obtained:
human IGF1R (hIGF1R) = target: T1, human IGF1R (hIGF1R) (Homo sapiens, UniProt P08069); test: IGF1R TR-FRET assay using peptide as the phosphoacceptor; format: biochemical; settings: 10 μM ATP, 0.5 nM activated enzyme
T1 construct: containing amino acid residues 957-1367 of human IGF1R; made in house; host or cells: Sf9 cells, baculovirus
Experimental: A. IR and IGF1 R Time Resolved Fluorescence Resonance Energy Transfer (TR-FRET) Assay Using Peptide as the Phosphoacceptor
Substrate phosphorylation assays are carried out as follows:
The Source of Substrate Peptide
The biotinylated substrate peptide, (sequence-Biotin-aminohexyl-AEEEEY*[…]-NH2) SEQ. ID. 1 is purchased from QCB, Inc. (Hopkinton, Mass.). Purity is determined by HPLC. The calculated molecular mass of the peptide is 2216 dalton. Tyrosine phosphorylation by human IGF1R (hIGF1R) or human IR (hIR) occurs as indicated (Y*) in the peptide sequence described. Solid peptide sample is dissolved to approximately 1 mM in DMSO, aliquoted, and stored at −20° C. until use. True peptide concentration is determined by amino acid analysis.
The Source of Enzyme: • hIGF1R: GST-rTEV-IGF-1R (957-1367) containing amino acid residues 957-1367 of human IGF1R (as annotated by National Center for Biotechnology Information (NCBI) accession number NP_000866) is purified from a baculovirus expression system in Sf9 cells using Glutathione Sepharose 4FF column chromatography followed by Sephadex-200 size exclusion column chromatography. Enzyme purity of approximately 95% is achieved. Samples, in 25 mM Tris-HCl, 250 mM NaCl, 5% glycerol, 1 mM DTT, pH 7.5, are stored at −80° C. until use. • hIR: GST-rTEV-IR(979-1382) containing amino acid residues 979-1382 of human IR (as annotated by NCBI accession number NP_000199) is expressed and purified by the same process as hIGF1R. Enzyme purity of approximately 92% is achieved. Samples, in 25 mM Tris-HCl, 250 mM NaCl, 5% glycerol, 1 mM DTT, pH 7.5, are stored at −80° C. until use.
Activation of hIGF1R and hIR by Autophosphorylation: • hIGF1R: Activation of GST-rTEV-IGF-1R(957-1367) is achieved by a 4 minute incubation of hIGF1R (2.7 μM final) with 2 mM ATP in 50 mM HEPES, 20 mM MgCl2, 0.1 mg/mL BSA, at room temperature. Autophosphorylation is stopped by addition of EDTA (to 100 mM final). Aliquoted samples are flash frozen in liquid nitrogen and stored at −80° C. until use. • hIR: Activation of […] is achieved by a 5 minute incubation of hIR (2.7 μM final) with 2 mM ATP in 100 mM HEPES, 10 mM MgCl2, 0.1 mg/mL BSA, at room temperature. Autophosphorylation is stopped by addition of EDTA (to 100 mM final). Aliquoted samples are flash frozen in liquid nitrogen and stored at −80° C. until use. • Kinase Assay of Purified hIGF1R or hIR:
Assays are performed in 384-well (Greiner, Catalog No. 784076) microtiter plates. Reaction buffer (50 mM HEPES buffer, pH 7.5; 10 mM MgCl2; 3 mM DTT; 1 mM CHAPS; 0.1 mg/mL BSA) for peptide phosphorylation (10 μl volume) contained, in final concentrations, 500 nM biotinylated peptide substrate; 10 μM ATP; and purified, activated hIGF1R or hIR (0.5 nM). Some compounds were initially assayed against IGF1R in buffer without DTT or CHAPS. […] Compounds, titrated in DMSO, are evaluated at eleven concentrations ranging from 50 μM to 0.2 nM. […] No effect on activity relative to controls without DMSO is observed for hIGF1R or IR at these DMSO amounts. Reactions are incubated for 1 hour at room temperature and are stopped by a 5 μl addition of EDTA (to 33 mM). A further addition of 5 μl detection reagents (for final 7 nM Streptavidin-APC (PerkinElmer #CR130-150), 1 nM Europium-labeled anti-phosphotyrosine monoclonal antibody (PerkinElmer #AD0067), added in reaction buffer (without DTT), is required for signal generation. After 30 minutes, signal is read on PerkinElmer Viewlux microplate imager or Wallac Victor fluorometer.
Data were fitted to the curve described by:
y=((Vmax*x)/(K+x)) where • Vmax is the upper asymptote and • K is the IC50.
The results for each tested compound were recorded as pIC50 calculated as follows: […]

COLO205 (colon) = test: Inhibition of cell proliferation, CellTiter-Glo, COLO205; format: cell-based; settings: Homo sapiens, COLO 205, 72 h
Method in brief: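 Exponentially growing COLO205 cells in medium with 10% FBS were plated below 2000 cells/well at 37 °C, 5% CO2. Untreated wells served as controls.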

[1] = test system: NCI-H929 (multiple myeloma); test: Inhibition of cell proliferation, CellTiter-Glo, NCI-H929; format: cell-based; settings: Homo sapiens, 72 h
Method in brief: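 Cells were grown in medium with 10% FBS at 37° C, 5% CO2. Cell number was read as CellTiter-Glo luminescence (cellular ATP), with untreated wells as control.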

[2] = target: T2, human IGF-1R (NIH-3T3 cells over expressing human IGF-1R) (Homo sapiens, UniProt P08069); test: IGF-1R cellular autophosphorylation (DELFIA); format: cell-based; settings: IGF-1 stimulated
T2 construct: expressed in transfected cells; host or cells: NIH-3T3 (mouse fibroblasts)
Method in brief: (§1)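 Read-out: DELFIA on lysates, receptor-specific capture antibody plus europium-labelled anti-phosphotyrosine, reported as % of IGF-1- or insulin-stimulated signal. Transfected NIH-3T3 cells got compound (30 uM–1.5 nM, 2 h) before a 15 min ligand pulse: IGF-1 30 ng/mL for IGF-1R, insulin 3 ug/mL for IR.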

[3] = target: T3, IR (NIH-3T3 cells over expressing human IGF-1R or IR) (Homo sapiens, UniProt P06213); test: IR cellular autophosphorylation (DELFIA); format: cell-based; settings: NIH-3T3 cells over expressing IR, insulin stimulated
T3 construct: expressed in transfected cells; host or cells: NIH-3T3 (mouse fibroblasts)
Method in brief: as §1

human IR (hIR) = target: T4, human IR (hIR) (Homo sapiens, UniProt P06213); test: IR TR-FRET assay using peptide as the phosphoacceptor; format: biochemical; settings: 10 μM ATP, 0.5 nM activated enzyme; read-out: IR pIC50 (converted)
T4 construct: containing amino acid residues 979-1382 of human IR; GST (N); rTEV protease site (linker between GST and kinase) (N); made in house; host or cells: Sf9 cells, baculovirus (same process as hIGF1R)

[4] = test system: LISN cell (mouse 3T3 fibroblasts transduced with human IGF-1R) tumors; test: In vivo efficacy, mice bearing LISN cell tumors; settings: for tumor growth inhibition at day 21: LISN (start approx. 362 mm^3)
Experimental: E. In Vivo Efficacy—Mouse Models
The efficacy of the compounds of Examples 57 and 58 were assessed together in an in vivo efficacy experiment performed on mice bearing LISN cell (mouse 3T3 fibroblasts transduced with human IGF-1R) tumors. Fifty six female nude mice bearing subcutaneous LISN cell tumors were measured for tumor size and body weight and block randomized into seven groups of eight mice with an equal average tumor volume of approximately 200 mm3. Mice were dosed with either vehicle (20% SBE pH3.5), Example 57 or Example 58. The dosing schedules for each compound were based on previous experiments with the compounds and doses chosen to give the highest tumor growth inhibition and a dose response. Example 58 was dosed at 30, 100 and 300 mg/kg QD for 21 days while Example 57 was dosed at 30 mg/kg QD for 21 days, 15 mg/kg BID for 21 days and 30 mg/kg QDx3 days/week for 3 weeks.
The tumors on mice being treated with vehicle grew with the expected exponential growth throughout the 21 day study. […] The lower dose of 30 mg/kg of Example 58 achieved 28% tumor growth inhibition.
The efficacy of the compounds of Examples 237 and 219 were assessed together in an in vivo efficacy experiment performed on mice bearing LISN cell (mouse 3T3 fibroblasts transduced with human IGF-1R) tumors. Sixty four female nude mice bearing subcutaneous LISN cell tumors were measured for tumor size and body weight and block randomized into eight groups of eight mice with an equal average tumor volume of approximately 362 mm^3. Mice were dosed with either vehicle (20% SBE pH3.5), Example 237 or Example 219. The dosing schedules for each compound were based on previous experiments with the compounds and doses chosen to give the highest tumor growth inhibition and a dose response. Example 237 was administered at 30 and 60 mg/kg QD for 21 days and 30 mg/kg BID for 21 days while Example 219 was administered at 50 and 100 mg/kg QD for 21 days, 25 and 50 mg/kg BID for 21 days.
The tumors on mice being treated with vehicle grew with the expected exponential growth throughout the 21 day study. […] The lower dose of 30 mg/kg QD of Example 237 achieved 15% tumor growth inhibition at day 21 (note: 2 animals were euthanized prior to the last measurement). […] This recovered to 3% by the end of dosing and fully recovered after dosing was concluded. […] This recovered fully within 4 days after the completion of dosing.

T3 sequence (P06213 28-1382): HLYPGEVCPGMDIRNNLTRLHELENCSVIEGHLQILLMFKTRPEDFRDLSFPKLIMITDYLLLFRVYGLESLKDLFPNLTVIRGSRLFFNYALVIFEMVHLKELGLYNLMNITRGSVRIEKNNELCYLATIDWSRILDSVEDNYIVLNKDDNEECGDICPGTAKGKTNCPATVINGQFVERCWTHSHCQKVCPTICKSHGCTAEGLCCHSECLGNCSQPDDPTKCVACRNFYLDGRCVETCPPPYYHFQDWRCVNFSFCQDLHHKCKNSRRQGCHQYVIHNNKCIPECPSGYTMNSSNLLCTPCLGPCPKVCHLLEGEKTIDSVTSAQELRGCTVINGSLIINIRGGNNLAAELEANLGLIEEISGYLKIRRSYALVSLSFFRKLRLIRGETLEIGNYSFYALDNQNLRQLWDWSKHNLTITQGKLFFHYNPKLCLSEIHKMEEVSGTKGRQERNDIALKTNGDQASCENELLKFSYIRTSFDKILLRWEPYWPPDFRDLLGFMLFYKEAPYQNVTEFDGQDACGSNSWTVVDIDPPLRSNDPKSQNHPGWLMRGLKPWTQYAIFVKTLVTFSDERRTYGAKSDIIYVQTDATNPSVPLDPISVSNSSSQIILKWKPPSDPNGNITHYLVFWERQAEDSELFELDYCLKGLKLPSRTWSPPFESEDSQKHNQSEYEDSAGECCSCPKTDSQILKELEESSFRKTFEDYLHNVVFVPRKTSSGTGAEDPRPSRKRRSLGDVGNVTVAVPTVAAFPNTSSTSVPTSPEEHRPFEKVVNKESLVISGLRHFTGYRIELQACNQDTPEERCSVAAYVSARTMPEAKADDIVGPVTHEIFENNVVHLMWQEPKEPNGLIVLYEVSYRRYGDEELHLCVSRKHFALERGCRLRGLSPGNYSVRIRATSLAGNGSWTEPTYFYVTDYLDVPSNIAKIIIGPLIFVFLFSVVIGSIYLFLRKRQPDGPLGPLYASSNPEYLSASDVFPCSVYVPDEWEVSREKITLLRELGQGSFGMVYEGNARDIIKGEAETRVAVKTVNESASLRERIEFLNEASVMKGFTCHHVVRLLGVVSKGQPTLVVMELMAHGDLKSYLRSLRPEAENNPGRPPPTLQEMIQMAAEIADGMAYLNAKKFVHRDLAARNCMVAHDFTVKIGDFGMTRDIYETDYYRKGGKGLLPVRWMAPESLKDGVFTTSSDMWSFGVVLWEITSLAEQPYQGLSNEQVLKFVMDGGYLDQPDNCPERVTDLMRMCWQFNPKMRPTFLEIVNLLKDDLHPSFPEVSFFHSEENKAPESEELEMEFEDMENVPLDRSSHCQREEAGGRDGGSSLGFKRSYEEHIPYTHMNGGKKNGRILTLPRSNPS
T1 sequence (P08069 957-1367): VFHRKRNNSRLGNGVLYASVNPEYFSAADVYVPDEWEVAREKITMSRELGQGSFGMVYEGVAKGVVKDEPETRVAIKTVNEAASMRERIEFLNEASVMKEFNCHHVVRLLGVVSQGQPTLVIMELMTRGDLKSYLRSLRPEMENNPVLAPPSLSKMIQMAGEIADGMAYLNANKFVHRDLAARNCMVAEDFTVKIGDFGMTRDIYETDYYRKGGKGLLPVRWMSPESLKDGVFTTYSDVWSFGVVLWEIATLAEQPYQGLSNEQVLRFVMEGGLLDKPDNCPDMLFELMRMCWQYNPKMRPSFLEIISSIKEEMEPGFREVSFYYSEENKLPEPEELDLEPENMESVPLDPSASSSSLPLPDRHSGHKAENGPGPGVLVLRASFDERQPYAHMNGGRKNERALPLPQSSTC
T2 sequence (P08069 31-1367): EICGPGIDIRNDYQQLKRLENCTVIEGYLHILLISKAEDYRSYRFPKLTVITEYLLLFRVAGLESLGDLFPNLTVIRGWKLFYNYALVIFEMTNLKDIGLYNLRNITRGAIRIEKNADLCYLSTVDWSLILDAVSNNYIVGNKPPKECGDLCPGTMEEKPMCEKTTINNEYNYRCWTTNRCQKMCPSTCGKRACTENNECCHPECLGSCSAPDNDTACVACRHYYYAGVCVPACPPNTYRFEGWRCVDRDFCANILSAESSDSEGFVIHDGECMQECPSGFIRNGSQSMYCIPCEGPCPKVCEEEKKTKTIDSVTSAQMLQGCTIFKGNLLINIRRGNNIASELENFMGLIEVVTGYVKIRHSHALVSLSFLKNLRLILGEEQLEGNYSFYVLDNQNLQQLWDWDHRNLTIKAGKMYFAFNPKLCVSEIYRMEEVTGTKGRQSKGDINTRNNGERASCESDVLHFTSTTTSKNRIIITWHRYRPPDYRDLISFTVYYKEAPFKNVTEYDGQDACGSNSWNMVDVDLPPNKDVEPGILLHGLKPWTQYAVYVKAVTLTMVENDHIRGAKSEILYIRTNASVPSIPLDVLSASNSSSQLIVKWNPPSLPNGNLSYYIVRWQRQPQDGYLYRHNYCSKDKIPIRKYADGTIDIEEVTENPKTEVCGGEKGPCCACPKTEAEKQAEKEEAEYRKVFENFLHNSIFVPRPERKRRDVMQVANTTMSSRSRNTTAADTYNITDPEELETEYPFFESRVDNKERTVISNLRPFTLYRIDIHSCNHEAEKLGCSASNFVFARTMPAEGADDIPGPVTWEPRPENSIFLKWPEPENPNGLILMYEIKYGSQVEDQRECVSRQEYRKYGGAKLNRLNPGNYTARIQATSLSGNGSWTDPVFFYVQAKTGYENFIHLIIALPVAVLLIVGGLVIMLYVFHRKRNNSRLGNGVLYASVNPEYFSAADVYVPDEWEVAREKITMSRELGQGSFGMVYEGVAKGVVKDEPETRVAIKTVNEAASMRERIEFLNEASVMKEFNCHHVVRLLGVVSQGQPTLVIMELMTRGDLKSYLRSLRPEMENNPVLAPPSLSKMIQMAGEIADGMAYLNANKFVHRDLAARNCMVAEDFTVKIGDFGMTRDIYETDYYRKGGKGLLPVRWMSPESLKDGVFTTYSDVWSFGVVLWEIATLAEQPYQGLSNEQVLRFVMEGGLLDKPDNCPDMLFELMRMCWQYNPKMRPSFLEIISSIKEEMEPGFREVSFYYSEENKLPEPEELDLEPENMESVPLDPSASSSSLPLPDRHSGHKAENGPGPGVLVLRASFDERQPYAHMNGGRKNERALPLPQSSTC
T4 sequence (P06213 979-1382): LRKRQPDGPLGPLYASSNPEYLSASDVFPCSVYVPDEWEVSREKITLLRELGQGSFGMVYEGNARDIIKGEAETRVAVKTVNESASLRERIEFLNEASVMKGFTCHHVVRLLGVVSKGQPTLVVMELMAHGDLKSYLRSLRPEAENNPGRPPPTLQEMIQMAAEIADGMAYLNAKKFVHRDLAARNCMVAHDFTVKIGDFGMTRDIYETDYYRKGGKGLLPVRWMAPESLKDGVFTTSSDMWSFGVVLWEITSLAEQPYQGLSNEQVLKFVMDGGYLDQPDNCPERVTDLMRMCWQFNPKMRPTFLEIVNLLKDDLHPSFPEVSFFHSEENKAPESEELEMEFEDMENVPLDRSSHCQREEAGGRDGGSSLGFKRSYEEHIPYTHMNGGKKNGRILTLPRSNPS

| IC50 (COLO205 (colon)) [nM] | IC50 [1] [nM] | IC50 [2] [nM] | IC50 [3] [nM] | IC50 (human IGF1R (hIGF1R); read-out: IGF-1R pIC50 (converted)) [nM] | IC50 (human IR (hIR)) [nM] | time to full recovery of body weight after the completion of dosing ([4]; LISN, 25 mg/kg BID and 50 mg/kg BID) [days] | SMILES | IGF-1R pIC50 (human IGF1R (hIGF1R)) | tumor growth inhibition at day 21 ([4]; 25 mg/kg BID for 21 days) [%] | tumor growth inhibition at day 21 ([4]; 50 mg/kg BID for 21 days) [%] | tumor growth inhibition at day 21 ([4]; 50 mg/kg QD for 21 days) [%] | tumor growth inhibition at day 21 ([4]; 100 mg/kg QD for 21 days) [%] | body weight loss ([4]; LISN, 25 mg/kg BID for 21 days) [%] | body weight loss ([4]; LISN, 50 mg/kg BID for 21 days) [%] | body weight loss ([4]; LISN, 100 mg/kg and 50 mg/kg QD) |
| --- | --- | --- | --- | --- | --- | --- | --- | --- | --- | --- | --- | --- | --- | --- | --- |
| < 250 | < 250 | < 100 | < 100 |  |  |  | CCOc1cc(N2CCC(CCS(C)(=O)=O)CC2)c(C)cc1Nc1nccc(-c2c(-c3ccc(OCC)c(C(=O)Nc4c(F)cccc4F)c3)nc3ccccn23)n1 [Example 217, N-(2,6-difluorophenyl)-2-(ethyloxy)-5-(3-{2-[(2-(ethyloxy)-5-methyl-4-{4-[2-(methylsulfonyl)ethyl]-1-piperidinyl}phenyl)amino]-4-pyrimidinyl}imidazo[1,2-a]pyridin-2-yl)benzamide] | ++ (at least one average pIC50 measurement greater than 6 against the kinase tested but no average measurement greater than pIC50 of 7) |  |  |  |  |  |  |  |
| < 250 | < 250 | < 100 | < 100 |  |  |  | COc1cc(N2CCC(CCS(C)(=O)=O)CC2)c(C)cc1Nc1nccc(-c2c(-c3ccc(OC(C)C)c(C(=O)Nc4c(F)cccc4F)c3)nc3ccccn23)n1 [Example 214, N-(2,6-difluorophenyl)-2-[(1-methylethyl)oxy]-5-(3-{2-[(5-methyl-2-(methyloxy)-4-{4-[2-(methylsulfonyl)ethyl]-1-piperidinyl}phenyl)amino]-4-pyrimidinyl}imidazo[1,2-a]pyridin-2-yl)benzamide] | ++ (at least one average pIC50 measurement greater than 6 against the kinase tested but no average measurement greater than pIC50 of 7) |  |  |  |  |  |  |  |
| < 250 | < 250 | < 100 | < 100 |  |  | ≤ 4 | CCOc1cc(N2CCC(CCS(C)(=O)=O)CC2)c(C)cc1Nc1nccc(-c2c(-c3ccc(OC)c(C(=O)Nc4c(F)cccc4F)c3)nc3ccccn23)n1 [Example 219, N-(2,6-difluorophenyl)-5-(3-{2-[(2-(ethyloxy)-5-methyl-4-{4-[2-(methylsulfonyl)ethyl]-1-piperidinyl}phenyl)amino]-4-pyrimidinyl}imidazo[1,2-a]pyridin-2-yl)-2-(methyloxy)benzamide] |  | 16 | 76 | 29 | 44 | 4 | 6 | no body weight loss |

The remaining lines, values behind:

| SMILES | IC50 (COLO205 (colon)) [nM] | IC50 [1] [nM] | IC50 [2] [nM] | IC50 [3] [nM] | IC50 (human IGF1R (hIGF1R); read-out: IGF-1R pIC50 (converted)) [nM] | IC50 (human IR (hIR)) [nM] | time to full recovery of body weight after the completion of dosing ([4]; LISN, 25 mg/kg BID and 50 mg/kg BID) [days] | IGF-1R pIC50 (human IGF1R (hIGF1R)) | tumor growth inhibition at day 21 ([4]; 25 mg/kg BID for 21 days) [%] | tumor growth inhibition at day 21 ([4]; 50 mg/kg BID for 21 days) [%] | tumor growth inhibition at day 21 ([4]; 50 mg/kg QD for 21 days) [%] | tumor growth inhibition at day 21 ([4]; 100 mg/kg QD for 21 days) [%] | body weight loss ([4]; LISN, 25 mg/kg BID for 21 days) [%] | body weight loss ([4]; LISN, 50 mg/kg BID for 21 days) [%] | body weight loss ([4]; LISN, 100 mg/kg and 50 mg/kg QD) |
| --- | --- | --- | --- | --- | --- | --- | --- | --- | --- | --- | --- | --- | --- | --- | --- |
| CCOc1cc(CCN2CCN(C)CC2)ccc1Nc1nccc(-c2c(-c3cccc(C(=O)Nc4c(F)cccc4F)c3)nc3ccccn23)n1 [Example 147, N-(2,6-difluorophenyl)-3-{3-[2-({2-(ethyloxy)-4-[2-(4-methyl-1-piperazinyl)ethyl]-phenyl}amino)-4-pyrimidinyl}imidazo[1,2-a]pyridin-2-yl]benzamide] | > 1000 |  | < 100 | < 100 | < 100 | < 100 |  |  |  |  |  |  |  |  |  |
| CCOc1ccc(-c2nc3ccccn3c2-c2ccnc(Nc3cc(CC)c(N4CCC(CCS(C)(=O)=O)CC4)cc3OC)n2)cc1C(=O)Nc1c(F)cccc1F [Example 209, N-(2,6-difluorophenyl)-5-(3-{2-[(5-ethyl-2-(methyloxy)-4-{4-[2-(methylsulfonyl)ethyl]-1-piperidinyl}phenyl)amino]-4-pyrimidinyl}imidazo[1,2-a]pyridin-2-yl)-2-(ethyloxy)benzamide] | < 250 | < 250 | < 100 | < 100 |  |  |  | ++ (at least one average pIC50 measurement greater than 6 against the kinase tested but no average measurement greater than pIC50 of 7) |  |  |  |  |  |  |  |
